Test results as given in patent US9975888B2, “Aryl linked imidazole and triazole derivatives and methods of use thereof for improving the pharmacokinetics of a drug” (MERCK SHARP & DOHME CORP., priority 2013, dated 2018).

Legend:
Format in all cases: biochemical
CYP1A2 = molecular target: T1, CYP1A2 (Homo sapiens, UniProt P05177); assay: Cocktail assay for CYPs, phenacetin O-deethylation (CYP1A2), human liver microsomes; conditions: 10 μM phenacetin, 0.1 mg/mL human liver microsomes, 10 min at 37° C.; read-out: CYP IC50 (nM) 1A2
T1 construct: 0.1 mg/mL protein human liver microsomes (BD Gentest); tissue BD Gentest; host or cells: human liver microsomes
T1 sequence (P05177 1-516): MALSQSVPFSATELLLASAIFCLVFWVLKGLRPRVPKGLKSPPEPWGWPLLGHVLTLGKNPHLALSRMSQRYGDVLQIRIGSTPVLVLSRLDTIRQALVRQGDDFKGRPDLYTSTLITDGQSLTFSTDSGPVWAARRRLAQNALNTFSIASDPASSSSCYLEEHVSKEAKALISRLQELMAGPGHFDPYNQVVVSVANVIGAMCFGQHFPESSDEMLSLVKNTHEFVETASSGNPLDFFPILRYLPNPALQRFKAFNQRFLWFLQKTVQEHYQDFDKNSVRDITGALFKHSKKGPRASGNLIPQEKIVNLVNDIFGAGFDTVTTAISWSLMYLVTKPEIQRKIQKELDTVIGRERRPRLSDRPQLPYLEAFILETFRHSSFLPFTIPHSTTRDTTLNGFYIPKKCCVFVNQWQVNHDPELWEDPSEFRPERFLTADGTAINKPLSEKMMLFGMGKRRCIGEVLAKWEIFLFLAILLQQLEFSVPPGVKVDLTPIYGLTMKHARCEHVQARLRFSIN
In short: (§1)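 Pooled human liver microsomes (0.1 mg/mL) with a probe cocktail of 10 μM phenacetin, 5 μM dextromethorphan and 2 μM midazolam plus NADPH, pH 7.4, 10 min at 37° C. Each metabolite was quantified by LC/MS/MS against a tolbutamide internal standard. IC50 came from % inhibition at 6 concentrations (e.g. 0.0032–10 μM) by non-linear regression.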

CYP3A4 [1] = molecular target: T2, CYP3A4 (Homo sapiens, UniProt P08684); assay: IC50 vs CYP3A by inhibition of lopinavir metabolism in human liver microsomes; set-up: 0.01 mg/mL protein human liver microsomes (BD Gentest); tissue BD Gentest; host or cells: human liver microsomes; conditions: 1.5 μM lopinavir, 0.01 mg/mL human liver microsomes, 8 min at 37° C.; read-out: CYP IC50 (nM) 3A4 (LPV)
In short: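 Human liver microsomes (0.01 mg/mL) with 1.5 μM lopinavir, 1 mM NADPH, 3.3 mM MgCl2 in 100 mM potassium phosphate pH 7.4, 8 min at 37 °C, six compound concentrations. Summed M2/M3/M4 hydroxy metabolites quantified by LC/MS/MS against tolbutamide; % inhibition normalised between no-inhibitor and 5 μM ketoconazole controls, IC50 by non-linear regression.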
Target sequence in this assay (P08684 2-503): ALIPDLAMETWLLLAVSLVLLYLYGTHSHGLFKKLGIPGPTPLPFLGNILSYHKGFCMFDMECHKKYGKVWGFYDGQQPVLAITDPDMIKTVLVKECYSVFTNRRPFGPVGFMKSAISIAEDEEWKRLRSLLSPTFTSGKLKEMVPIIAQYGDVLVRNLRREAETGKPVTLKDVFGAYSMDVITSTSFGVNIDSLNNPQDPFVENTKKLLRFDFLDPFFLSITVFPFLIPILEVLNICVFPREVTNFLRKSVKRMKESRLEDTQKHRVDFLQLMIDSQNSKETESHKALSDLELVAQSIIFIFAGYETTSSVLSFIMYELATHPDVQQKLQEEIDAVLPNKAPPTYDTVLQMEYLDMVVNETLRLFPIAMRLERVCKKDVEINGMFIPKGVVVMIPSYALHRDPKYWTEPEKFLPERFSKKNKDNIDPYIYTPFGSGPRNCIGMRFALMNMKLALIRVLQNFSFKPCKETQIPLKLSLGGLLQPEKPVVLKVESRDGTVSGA

CYP2C19 = molecular target: T3, CYP2C19 (Homo sapiens, UniProt P33261); assay: Cocktail assay for CYPs, mephenytoin 4′-hydroxylation (CYP2C19), human liver microsomes; conditions: 30 μM mephenytoin, 0.1 mg/mL human liver microsomes, 10 min at 37° C.; read-out: CYP IC50 (nM) 2C19
T3 construct: 0.1 mg/mL protein human liver microsomes (BD Gentest); tissue BD Gentest; host or cells: human liver microsomes
In short: (§2)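 Pooled human liver microsomes (0.1 mg/mL) with probe cocktail incl. 5 μM diclofenac (CYP2C9) and 30 μM mephenytoin (CYP2C19), 1 mM NADPH, pH 7.4 phosphate buffer, 10 min at 37° C. Metabolites quantified by LC/MS/MS against internal standard; % inhibition versus no-inhibitor control, IC50 by non-linear regression.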

CYP2D6 = molecular target: T4, CYP2D6 (Homo sapiens, UniProt P10635); assay: Cocktail assay for CYPs, dextromethorphan O-demethylation (CYP2D6), human liver microsomes; conditions: 5 μM dextromethorphan, 0.1 mg/mL human liver microsomes, 10 min at 37° C.; read-out: CYP IC50 (nM) 2D6
T4 construct: 0.1 mg/mL protein human liver microsomes (BD Gentest); tissue BD Gentest; host or cells: human liver microsomes
In short: as §1

CYP3A4 [2] = molecular target: T2, CYP3A4; assay: Cocktail assay for CYPs, midazolam 1′-hydroxylation (CYP3A4), human liver microsomes; set-up: 0.1 mg/mL protein human liver microsomes (BD Gentest); tissue BD Gentest; host or cells: human liver microsomes; conditions: 2 μM midazolam, 0.1 mg/mL human liver microsomes, 10 min at 37° C.; read-out: CYP IC50 (nM) 3A4 (MDZ)
In short: as §1
Target sequence in this assay (P08684 whole entry): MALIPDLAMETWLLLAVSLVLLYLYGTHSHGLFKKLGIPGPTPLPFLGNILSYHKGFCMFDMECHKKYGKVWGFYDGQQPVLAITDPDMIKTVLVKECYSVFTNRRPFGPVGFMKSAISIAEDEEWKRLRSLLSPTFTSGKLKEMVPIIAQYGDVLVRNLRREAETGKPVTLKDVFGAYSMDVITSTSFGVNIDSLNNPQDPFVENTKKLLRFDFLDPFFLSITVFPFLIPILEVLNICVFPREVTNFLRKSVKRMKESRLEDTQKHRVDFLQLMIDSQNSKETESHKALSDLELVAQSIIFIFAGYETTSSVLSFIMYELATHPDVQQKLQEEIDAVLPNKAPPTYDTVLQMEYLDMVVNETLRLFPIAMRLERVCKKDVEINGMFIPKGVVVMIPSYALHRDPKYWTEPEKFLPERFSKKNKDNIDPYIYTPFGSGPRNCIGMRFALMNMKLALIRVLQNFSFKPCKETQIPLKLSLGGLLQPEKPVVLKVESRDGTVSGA

CYP2C9 = molecular target: T5, CYP2C9 (Homo sapiens, UniProt P11712); assay: Cocktail assay for CYPs, diclofenac 4′-hydroxylation (CYP2C9), human liver microsomes; conditions: 5 μM diclofenac, 0.1 mg/mL human liver microsomes, 10 min at 37° C.; read-out: CYP IC50 (nM) 2C9
T5 construct: 0.1 mg/mL protein human liver microsomes (BD Gentest); tissue BD Gentest; host or cells: human liver microsomes
In short: as §2

T4 sequence (P10635 whole entry): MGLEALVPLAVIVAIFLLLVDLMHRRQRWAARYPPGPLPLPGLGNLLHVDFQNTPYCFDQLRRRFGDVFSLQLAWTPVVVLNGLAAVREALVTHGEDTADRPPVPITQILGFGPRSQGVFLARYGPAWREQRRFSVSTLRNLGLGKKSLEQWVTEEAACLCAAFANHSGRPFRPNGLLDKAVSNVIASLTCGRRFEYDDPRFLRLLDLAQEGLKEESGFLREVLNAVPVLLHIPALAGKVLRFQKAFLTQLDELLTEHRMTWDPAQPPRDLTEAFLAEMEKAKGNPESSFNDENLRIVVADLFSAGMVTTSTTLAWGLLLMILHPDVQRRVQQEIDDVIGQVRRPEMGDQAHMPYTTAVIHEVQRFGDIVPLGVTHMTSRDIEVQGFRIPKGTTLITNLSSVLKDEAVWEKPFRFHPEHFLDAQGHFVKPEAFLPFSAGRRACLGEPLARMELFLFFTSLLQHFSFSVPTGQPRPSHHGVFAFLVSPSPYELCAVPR
T5 sequence (P11712 whole entry): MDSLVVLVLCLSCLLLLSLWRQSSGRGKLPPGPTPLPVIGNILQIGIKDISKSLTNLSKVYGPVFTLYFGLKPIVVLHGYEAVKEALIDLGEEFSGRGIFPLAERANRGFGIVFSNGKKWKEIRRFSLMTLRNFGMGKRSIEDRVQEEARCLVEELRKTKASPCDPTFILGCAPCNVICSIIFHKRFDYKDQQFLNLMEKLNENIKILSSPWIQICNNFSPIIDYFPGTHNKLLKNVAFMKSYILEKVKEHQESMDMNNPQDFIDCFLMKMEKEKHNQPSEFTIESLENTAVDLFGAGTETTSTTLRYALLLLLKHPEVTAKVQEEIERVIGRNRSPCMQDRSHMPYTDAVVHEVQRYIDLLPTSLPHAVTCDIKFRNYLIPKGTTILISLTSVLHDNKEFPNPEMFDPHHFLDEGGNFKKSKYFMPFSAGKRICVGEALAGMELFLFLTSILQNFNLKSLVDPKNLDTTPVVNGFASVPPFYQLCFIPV
T3 sequence (P33261 whole entry): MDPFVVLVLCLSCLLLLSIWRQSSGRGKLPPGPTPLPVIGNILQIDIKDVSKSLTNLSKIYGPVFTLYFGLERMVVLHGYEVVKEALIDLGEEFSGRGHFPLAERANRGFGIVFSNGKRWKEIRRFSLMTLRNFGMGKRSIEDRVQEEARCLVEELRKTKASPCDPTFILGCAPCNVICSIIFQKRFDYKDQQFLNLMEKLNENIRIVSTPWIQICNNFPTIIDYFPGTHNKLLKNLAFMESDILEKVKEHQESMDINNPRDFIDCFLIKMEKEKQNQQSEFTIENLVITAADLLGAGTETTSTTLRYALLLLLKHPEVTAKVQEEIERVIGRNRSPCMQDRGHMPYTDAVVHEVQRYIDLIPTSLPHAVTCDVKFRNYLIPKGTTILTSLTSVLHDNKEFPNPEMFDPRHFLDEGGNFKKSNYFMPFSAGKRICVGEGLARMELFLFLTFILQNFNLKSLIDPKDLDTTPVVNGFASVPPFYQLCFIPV

SMILES | IC50 (CYP1A2) [nM] | IC50 (CYP3A4 [1]) [nM] | IC50 (CYP2C19) [nM] | IC50 (CYP2D6) [nM] | IC50 (CYP3A4 [2]) [nM] | IC50 (CYP2C9) [nM]
C[C@H](c1ccc(F)cc1)n1cncc1-c1cccc2c1CCN(S(=O)(=O)c1cnc(N3CCN4C[C@H](O)C[C@H]4C3)s1)C2 [Compound 63, (7R,8aS)-2-(5-((5-(1-((R)-1-(4-fluorophenyl)ethyl)-1H-imidazol-5-yl)-3,4-dihydroisoquinolin-2(1H)-yl)sulfonyl)thiazol-2-yl)octahydropyrrolo[1,2-a]pyrazin-7-ol] | 2500 | 5 | 2610 | 3680 | 7.5 | 4950
O=S(=O)(c1cnc(N2CCN3C[C@H](O)C[C@H]3C2)s1)N1CCc2c(cccc2-c2cncn2CCc2ccc(F)cc2)C1 [Compound 64, (7R,8aS)-2-(5-((5-(1-(4-fluorophenethyl)-1H-imidazol-5-yl)-3,4-dihydroisoquinolin-2(1H)-yl)sulfonyl)thiazol-2-yl)octahydro-pyrrolo[1,2-a] pyrazin-7-ol] | > 10000 | 1.6 | 4230 | 3130 | 4.7 | 3550
O=S(=O)(c1cnc(N2CCN3C[C@H](O)C[C@H]3C2)s1)N1CCc2cccc(-c3cncn3CCc3ccc(F)cc3)c2C1 [Compound 65, (7R,8aS)-2-(5-((8-(1-(4-fluorophenethyl)-1H-imidazol-5-yl)-3,4-dihydroisoquinolin-2(1H)-yl)sulfonyl)thiazol-2-yl)octahydropyrrolo[1,2-a]pyrazin-7-ol] | > 10000 | 8.9 | 9230 | 4900 | 18.5 | 1260
CN1CCN(c2ncc(S(=O)(=O)N3CCc4c(-c5cncn5CCc5ccc(F)cc5)ccnc4C3)s2)CC1 [Compound 66, 5-((4-(1-(4-fluorophenethyl)-1H-imidazol-5-yl)-5,6-dihydro-1,7-naphthyridin-7(8H)-yl)sulfonyl)-2-(4-methylpiperazin-1-yl)thiazole] | 2680 | 23.8 | > 10000 | > 10000 | 22.4 | > 10000
CN1CCN(c2ncc(S(=O)(=O)N3CCc4c(ncnc4-c4cncn4CCc4ccc(F)cc4)C3)s2)CC1 [Compound 67, 5-((4-(1-(4-fluorophenethyl)-1H-imidazol-5-yl)-5,6-dihydropyrido[3,4-d]pyrimidin-7(8H)-yl)sulfonyl)-2-(4-methylpiperazin-1-yl)thiazole] | > 10000 | > 100 | > 10000 | 6510 | 123 | > 10000
